Laboratory results reported in patent US20100221345A1, “OSTEOGENIC BIOMATERIAL CONTAINING OSTEOGENESIS PROMOTING SUBSTANCE AND NANOGEL” (NATIONAL UNIVERSITY CORPORATION TOKYO MEDICAL AND, priority 2006, published 2010).

Key:
femur cancellous bone = experiment: Effect on bones of the whole body: amount of cancellous bone of the femur; format: in vivo, ICR mouse; conditions: same mice, local parietal administration 5 times a week for 4 weeks, FIG. 4
Protocol: (§1) The PGE2-containing CHP prepared by the same manner as in Example 2 was locally administrated onto the parietal bone of a 3-week old ICR mouse 5 times a week for 4 weeks. […] of the prepared PGE2-containing CHP solution (PGE2 0.6 μg/ml) was administered for a dose. Evaluation was conducted for 4 groups of physiological saline, PGE2, CHP, PGE2-containing CHP (N=5). After 4 weeks of administration, the mice were sacrificed, and the parietal bones were collected, and the width of the parietal bone was measured by 2-D μCT. In order to study the effect on the bones of a whole body, the amount of cancellous bone of the femur was evaluated.

MC3T3E1 cells [1] = experiment: Cell differentiation by alkaline phosphatase (ALP) activity in osteoblast cell line; format: cell-based; conditions: PGE2 10 μM, 24 hours, FIG. 5
Protocol: (§2) In order to understand the mechanism at the cellular level of the PGE2-containing CHP nanogel, the osteoblast cell line MC3T3E1 cell culture system was used to analyze the cell differentiation by alkaline phosphatase (ALP) activity and the cell growth by the MTT method.
(§3) MC3T3E1 cells were seeded 5×10^3 cells/well in a 96-well plate and cultured in the presence of […] at 37° C. for 1 day. These cells were supplied with the PGE2-containing CHP solution (PGE2 10 μM) prepared in the same manner as in Example 2 to get the same concentration, then cultured in the presence of […] at 37° C. for 24 hours, then collected by scraping, and dissolved in 0.05 ml of a lysis buffer. The alkaline phosphatase (ALP) activity was measured according to the published protocols. In addition, the MTT method was conducted according to the published protocols.

MC3T3E1 cells [2] = experiment: Cell growth by the MTT method in osteoblast cell line; format: cell-based; conditions: PGE2 10 μM, 24 hours, FIG. 5
Protocol: as §2, §3

mouse parietal bone = experiment: Osteogenesis in mouse parietal bone with PGE2-containing CHP nanogel (width by 2-D μCT); format: in vivo; conditions: 3-week old ICR mouse, local administration onto parietal bone 5 times a week for 4 weeks, PGE2 0.6 μg/ml, FIG. 3
Protocol: PGE2-containing hydrophobized polysaccharide nanogel was administered to a mouse parietal bone to observe osteogenesis.
as §1

Structure (SMILES): CCCCC[C@H](O)/C=C/[C@H]1[C@H](O)CC(=O)[C@@H]1C/C=C\CCCC(=O)O [PGE2, Prostaglandin E2]
- amount of cancellous bone in the femur apart from the administration site (femur cancellous bone): increase
- cellular differentiation (ALP activity) (MC3T3E1 cells [1]): increase
- cellular growth (MTT method) (MC3T3E1 cells [2]): increase
- width of the parietal bone (mouse parietal bone): no change
